Results on 20 compounds are retold here after patent US20230086702A1, “SUBSTITUTED 2-AMINO-PYRAZOLYL-[1,2,4]TRIAZOLO[1,5A]PYRIDINE DERIVATIVES AND USE THEREOF” (The Johns Hopkins University, priority 2019, published 2023).

Test [1] deals with T1, DLK (Homo sapiens, UniProt Q12852).
T1 construct: 10 nM DLK, catalytic domain, Carna Biosiences; purchased Carna Biosciences ('Carna Biosiences' [sic])
T1 sequence (Q12852 125-366 limits assumed): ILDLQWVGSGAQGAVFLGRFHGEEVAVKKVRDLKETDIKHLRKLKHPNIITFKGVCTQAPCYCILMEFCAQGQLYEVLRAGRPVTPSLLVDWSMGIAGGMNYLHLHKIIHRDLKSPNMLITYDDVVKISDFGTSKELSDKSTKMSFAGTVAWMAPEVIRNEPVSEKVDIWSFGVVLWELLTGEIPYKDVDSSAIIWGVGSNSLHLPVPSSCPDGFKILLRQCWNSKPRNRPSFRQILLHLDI
The test is described as follows: DLK biochemical assay (TR-FRET, MKK7 phosphorylation). The note with it: DLK catalytic domain, MKK7 substrate, 60 μM ATP. On the procedure:
(§1) DLK assay is a biochemical assay format designed to screen for inhibitors of DLK. Enzymatic activity of DLK is measured by monitoring phosphorylation of the physiological substrate MKK7 (MAP2K7, Dual specificity mitogen-activated protein kinase kinase 7). Phosphorylation is detected by a TR-FRET system whereby His-tagged MKK7 is labeled by a XL665-labeled anti-His antibody (FRET acceptor, emission 665 nm). DLK phosphorylates MKK7 at T275/S277, which is detected by an Eu-labeled anti-phospho-MKK7 (T275/S277) antibody (FRET donor, excitation 340 nm). Phosphorylation of MKK7 results in an increased TR-FRET signal (Ratio XL665-channel/Eu-channel) and inhibition of enzymatic activity of DLK decreases the TR-FRET signal.
All indicated concentrations are final concentrations.
(§2) Detection buffer: 25 mM Tris/HCl pH 7.5, 100 mM EDTA, 100 mM NaCl, 200 mM KF, 0.01% Tween 20, 1:500 Smart Block.
For orientation: In TR-FRET formats the signal depends on donor and acceptor labels being close together.

The target of test [2] is T2, LZK (Homo sapiens, UniProt O43283).
T2 construct: 10 nM LZK, catalytic domain, Carna Biosiences in assay buffer; purchased Carna Biosciences ('Carna Biosiences' [sic])
T2 sequence (O43283 168-409 limits assumed): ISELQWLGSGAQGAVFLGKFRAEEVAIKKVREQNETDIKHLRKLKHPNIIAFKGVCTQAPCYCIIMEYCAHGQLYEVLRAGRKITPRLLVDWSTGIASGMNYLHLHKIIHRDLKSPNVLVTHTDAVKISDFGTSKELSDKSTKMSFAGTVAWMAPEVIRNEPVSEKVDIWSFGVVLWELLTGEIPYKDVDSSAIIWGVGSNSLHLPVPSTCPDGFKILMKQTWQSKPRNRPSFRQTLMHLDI
Put plainly: LZK biochemical assay (TR-FRET, MKK7 phosphorylation). To be noted: LZK catalytic domain, MKK7 substrate, 15 μM ATP. On the procedure: as §1, with “LZK” for “DLK”, “LZK.” for “DLK.”, “T275/S277” for “T275/S277,”
All indicated concentrations final concentrations.
as §2

Test [3] deals with T1, DLK. The test is described as follows: DLK biochemical assay (TR-FRET, MKK7 phosphorylation). A digest of the protocol:
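DLK catalytic domain (10 nM) phosphorylates His-MKK7 (15 nM) at 60 μM ATP for 90 min at RT in pH 7.5 Hepes buffer (final concentrations). Phospho-T275/S277 is detected by TR-FRET (Eu anti-phospho donor, XL665 anti-His acceptor) after 16 h at 37° C (1536 format) or 4° C (384 format).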

In test [4] the target is T2, LZK. The test is described as follows: LZK biochemical assay (TR-FRET, MKK7 phosphorylation). A digest of the protocol: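 LZK catalytic domain (10 nM) phosphorylates His-MKK7 (15 nM) with 15 µM ATP, all final, for 90 min at RT in HEPES buffer pH 7.5 with MgCl2. Phospho-T275/S277 detected by TR-FRET (Eu anti-phospho donor, XL665 anti-His acceptor) after 16 h at 32 °C in EDTA stop buffer. Inhibition lowers the 665/Eu ratio.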

Read-outs that look alike come from different tables or passages of the source.

Regarding `CC[C@H](C)NC(=O)c1cc(-c2cnn(C3CCc4ccccc43)c2)cn2nc(N)nc12` (mixture of isomers) [Example I-13, 2-Amino-N-[(2S)-butan-2-yl]-6-[1-(2,3-dihydro-1H-inden-1-yl)-1H-pyrazol-4-yl][1,2,4]triazolo[1,5-a]pyridine-8-carboxamide], the figures for the half-maximal inhibitory concentration (IC50) in test [1] and in test [2] were 68 nM and 7.7 nM, respectively.
For the compound `CC[C@H](C)NC(=O)c1cc(-c2cnn(C3CCOc4ccccc43)c2)cc2nc(N)nn12` (mixture of isomers) [Example I-16, 2-Amino-N-[(2S)-butan-2-yl]-7-[1-(3,4-dihydro-2H-chromen-4-yl)-1H-pyrazol-4-yl][1,2,4]triazolo[1,5-a]pyridine-5-carboxamide], the IC50 (commonly the concentration needed to halve the response being measured) in test [1] was determined as 22 nM; in test [2], 3.3 nM.
For `CC[C@H](C)NC(=O)c1cc(-c2cnn(C3CCCc4ncccc43)c2)cc2nc(N)nn12` (mixture of isomers) [Example I-19, 2-Amino-N-[(2S)-butan-2-yl]-7-[1-(5,6,7,8-tetrahydroquinolin-5-yl)-1H-pyrazol-4-yl][1,2,4]triazolo[1,5-a]pyridine-5-carboxamide] the same measures were 21 nM and 3.9 nM.
On to `CC[C@H](C)NC(=O)c1cc(-c2cnn(C3CCCc4cnccc43)c2)cc2nc(N)nn12` (mixture of isomers) [Example I-20, 2-Amino-N-[(2S)-butan-2-yl]-7-[1-(5,6,7,8-tetrahydroisoquinolin-5-yl)-1H-pyrazol-4-yl][1,2,4]triazolo[1,5-a]pyridine-5-carboxamide], for which the concentration for half-maximal inhibition (IC50) in test [1] amounted to 11 nM; in test [2], 4.4 nM.
For `CC[C@H](C)NC(=O)c1cc(-c2cnn(C3CCCc4ccncc43)c2)cc2nc(N)nn12` (mixture of isomers) [Example I-21, 2-Amino-N-[(2S)-butan-2-yl]-7-[1-(5,6,7,8-tetrahydroisoquinolin-8-yl)-1H-pyrazol-4-yl][1,2,4]triazolo[1,5-a]pyridine-5-carboxamide] the same measures were 33 nM and 5.1 nM.
Consider `CC[C@H](C)NC(=O)c1cc(-c2cnn(C3CCCc4cccnc43)c2)cc2nc(N)nn12` (mixture of isomers) [Example I-22, 2-Amino-N-[(2S)-butan-2-yl]-7-[1-(5,6,7,8-tetrahydroquinolin-8-yl)-1H-pyrazol-4-yl][1,2,4]triazolo[1,5-a]pyridine-5-carboxamide], for which the values for the IC50 in test [1] and in test [2] were 27 nM and 13 nM, respectively.
Take `CC[C@H](C)NC(=O)c1cc(-c2cnn(C(c3ccccc3)C(C)C)c2)cc2nc(N)nn12` (mixture of isomers) [Example I-24, 2-Amino-N-[(2S)-butan-2-yl]-7-{1-[2-methyl-1-phenylpropyl]-1H-pyrazol-4-yl}[1,2,4]triazolo[1,5-a]pyridine-5-carboxamide]: the IC50 in test [1] was 2.7 nM; in test [2] it was 23 nM.
For `CC[C@H](C)NC(=O)c1cc(-c2cnn(C(c3ccccc3)C3CCC3)c2)cn2nc(N)nc12` (mixture of isomers) [Example I-27, 2-Amino-N-[(2S)-butan-2-yl]-6-{1-[cyclobutyl(phenyl)methyl]-1H-pyrazol-4-yl}[1,2,4]triazolo[1,5-a]pyridine-8-carboxamide] the same measures were 7.7 nM and 390 nM.
The corresponding values for `CC[C@H](C)NC(=O)c1cc(-c2cnn(C(c3ccccc3)C3(C)CC3)c2)cn2nc(N)nc12` (mixture of isomers) [Example I-28, 2-Amino-N-[(2S)-butan-2-yl]-6-{1[(1-methylcyclopropyl)(phenyl)methyl]-1H-pyrazol-4-yl}[1,2,4]triazolo[1,5-a]pyridine-8-carboxamide] are 9.2 nM and 380 nM.
Regarding `CC[C@H](C)NC(=O)c1cc(-c2cnn(C(c3ccccc3)C3CC(F)(F)C3)c2)cn2nc(N)nc12` (mixture of isomers) [Example I-31, 2-Amino-N-[(2S)-butan-2-yl]-6-{1-[(3,3-difluorocyclobutyl)(phenyl)methyl]-1H-pyrazol-4-yl}[1,2,4]triazolo[1,5-a]pyridine-8-carboxamide], the IC50 is 3.8 nM in test [1] and 150 nM in test [2].
As for `CC[C@H](C)NC(=O)c1cc(-c2cnn(C(c3ccccc3)C(C)(C)C)c2)cn2nc(N)nc12` (mixture of isomers) [Example I-34, 2-Amino-N-[(2S)-butan-2-yl]-6-{1-[2,2-dimethyl-1-phenylpropyl]-1H-pyrazol-4-yl}[1,2,4]triazolo[1,5-a]pyridine-8-carboxamide], the IC50 in test [1] was found to be 9.5 nM; in test [2], 520 nM.
For the compound `CC[C@H](C)NC(=O)c1cc(-c2cnn(C(CC(F)(F)F)c3ccccc3)c2)cn2nc(N)nc12` (mixture of isomers) [Example I-37, 2-Amino-N-[(2S)-butan-2-yl]-6-{1-[3,3,3-trifluoro-1-phenylpropyl]-1H-pyrazol-4-yl}[1,2,4]triazolo[1,5-a]pyridine-8-carboxamide], the IC50 was 3.6 nM in test [1] and 240 nM in test [2].
`Nc1nc2cc(-c3cnn(C(c4ccc(C(F)(F)F)nc4)C4CCOCC4)c3)cc(-c3ccc(=O)n(C(F)F)c3)n2n1` (stereo not shown) [II-182]: the figures for the IC50 in test [3] and in test [4] were 4 nM and 6.5 nM, respectively.
The corresponding values for `Nc1nc2cc(-c3cnn(C(c4ccc(C(F)(F)F)nc4)C4CCOCC4)c3)cc(-c3ccc(=O)n(CC(F)F)c3)n2n1` (stereo not shown) [II-185] are 1.3 nM and 2 nM.
Turning to `CCC(c1ccc(C(F)(F)F)nc1)n1cc(-c2cc(-c3ccc(=O)n(CC(F)(F)F)c3)n3nc(N)nc3c2)cn1` (stereo not shown) [II-188], the 50% inhibitory concentration (IC50) in test [3] stood at 7.1 nM; in test [4], 10 nM.
Turning to `CC[C@@H](c1ccc(C(F)(F)F)nc1)n1cc(-c2cc(-c3ccc(=O)n(CC(F)(F)F)c3)n3nc(N)nc3c2)cn1` [II-190], the 50% inhibitory concentration (IC50) was found to be 2.9 nM in test [3] and 5.4 nM in test [4].
For `Nc1nc2cc(-c3cnn(C(c4ccc(C(F)(F)F)nc4)C4CCOCC4)c3)cc(-c3ccc(=O)n(CC(F)(F)F)c3)n2n1` (stereo not shown) [II-191] the same measures were 3.2 nM and 6.3 nM.
For `CCc1nnc(-c2cc(-c3cnn(Cc4ccccc4)c3)cn3nc(N)nc23)s1` [II-197, 6-(1-Benzyl-1H-pyrazol-4-yl)-8-(5-ethyl-1,3,4-thiadiazol-2-yl)[1,2,4]triazolo[1,5-a]pyridin-2-amine] the same measures were 240 nM and 690 nM.
Regarding `CC(C)c1nnc(-c2cc(-c3cnn(Cc4ccccc4)c3)cn3nc(N)nc23)s1` [II-198, 6-(1-Benzyl-1H-pyrazol-4-yl)-8-[5-(propan-2-yl)-1,3,4-thiadiazol-2-yl][1,2,4]triazolo[1,5-a]pyridin-2-amine], the IC50 in test [3] amounted to 150 nM; in test [4], 260 nM.
For the compound `C[C@@H](CO)c1nnc(-c2cc(-c3cnn(Cc4cccc5cn[nH]c45)c3)cn3nc(N)nc23)s1` [II-199, (2S)-2-(5-{2-Amino-6-[1-(1H-indazol-7-ylmethyl)-1H-pyrazol-4-yl][1,2,4]triazolo[1,5-a]pyridin-8-yl}-1,3,4-thiadiazol-2-yl)propan-1-ol], the figures for the IC50 in test [3] and in test [4] were 12 nM and 410 nM, respectively.
